Laboratory results taken from ChEMBL document CHEMBL1806380, “Rigidized 1-aryl sulfonyl tryptamines: synthesis and pharmacological evaluation as 5-HT6 receptor ligands” (Bioorg Med Chem Lett, 2011).
Activity calls are given as the source filed them. The rule behind the calls is not given here.

Legend:
[1] = target: T1, Alpha-1B adrenergic receptor (Homo sapiens) (UniProt P35368); test: Inhibition of adrenergic alpha1b receptor at 0.5 uM
T1 sequence (whole entry): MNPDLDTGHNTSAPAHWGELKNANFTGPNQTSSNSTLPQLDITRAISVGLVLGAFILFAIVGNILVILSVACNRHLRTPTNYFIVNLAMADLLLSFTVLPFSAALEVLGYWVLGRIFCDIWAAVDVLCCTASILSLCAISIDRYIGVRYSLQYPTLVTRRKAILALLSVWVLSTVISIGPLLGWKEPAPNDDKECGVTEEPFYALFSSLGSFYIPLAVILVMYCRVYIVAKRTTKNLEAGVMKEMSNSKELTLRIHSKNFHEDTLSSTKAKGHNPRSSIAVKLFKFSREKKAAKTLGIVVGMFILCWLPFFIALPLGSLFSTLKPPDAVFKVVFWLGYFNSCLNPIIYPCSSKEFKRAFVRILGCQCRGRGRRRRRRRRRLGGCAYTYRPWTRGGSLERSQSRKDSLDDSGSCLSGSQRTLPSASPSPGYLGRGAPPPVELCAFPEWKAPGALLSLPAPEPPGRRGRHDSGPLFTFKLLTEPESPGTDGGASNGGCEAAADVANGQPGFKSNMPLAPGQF

[2] = target: Sodium-dependent dopamine transporter (Homo sapiens) (UniProt Q01959); test: Inhibition of DAT at 0.5 uM
Sodium-dependent dopamine transporter (Homo sapiens), sequence (Q01959 whole entry): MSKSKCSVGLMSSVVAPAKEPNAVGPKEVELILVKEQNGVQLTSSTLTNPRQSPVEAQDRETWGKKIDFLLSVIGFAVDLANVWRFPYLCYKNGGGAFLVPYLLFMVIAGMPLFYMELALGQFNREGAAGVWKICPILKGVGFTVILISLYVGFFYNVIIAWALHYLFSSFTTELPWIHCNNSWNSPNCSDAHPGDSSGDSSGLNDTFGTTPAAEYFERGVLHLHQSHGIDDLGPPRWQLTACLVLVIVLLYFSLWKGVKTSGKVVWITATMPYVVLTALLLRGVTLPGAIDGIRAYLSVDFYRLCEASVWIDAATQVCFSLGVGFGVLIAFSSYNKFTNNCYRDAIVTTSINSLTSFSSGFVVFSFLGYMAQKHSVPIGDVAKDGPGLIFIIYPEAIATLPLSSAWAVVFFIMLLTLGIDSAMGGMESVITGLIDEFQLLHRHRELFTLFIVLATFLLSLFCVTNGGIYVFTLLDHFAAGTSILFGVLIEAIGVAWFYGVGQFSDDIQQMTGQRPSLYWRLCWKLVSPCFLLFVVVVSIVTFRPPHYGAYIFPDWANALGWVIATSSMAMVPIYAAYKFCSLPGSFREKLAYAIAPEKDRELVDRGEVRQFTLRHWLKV

[3] = target: Histamine H1 receptor (Homo sapiens) (UniProt P35367); test: Inhibition of histamine H1 receptor at 0.5 uM
Histamine H1 receptor (Homo sapiens), sequence (P35367 whole entry): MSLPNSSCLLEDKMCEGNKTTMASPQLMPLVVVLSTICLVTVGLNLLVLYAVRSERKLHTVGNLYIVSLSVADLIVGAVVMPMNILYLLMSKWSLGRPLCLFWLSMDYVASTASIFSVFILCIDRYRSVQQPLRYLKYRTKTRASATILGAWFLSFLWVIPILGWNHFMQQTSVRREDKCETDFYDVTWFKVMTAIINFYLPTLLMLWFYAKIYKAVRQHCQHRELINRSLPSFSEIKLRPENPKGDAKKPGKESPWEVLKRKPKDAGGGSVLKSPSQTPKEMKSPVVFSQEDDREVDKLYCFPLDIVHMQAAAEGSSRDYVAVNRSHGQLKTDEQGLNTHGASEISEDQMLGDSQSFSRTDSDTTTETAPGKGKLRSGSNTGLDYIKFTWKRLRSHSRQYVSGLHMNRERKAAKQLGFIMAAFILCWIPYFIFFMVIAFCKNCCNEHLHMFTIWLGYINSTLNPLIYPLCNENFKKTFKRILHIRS

[4] = AUCt in Wistar rat at 10 mg/kg, iv; type: ADME, organism-based; parameters: dose 10 mg/kg, route intravenous; settings: plasma
[5] = Cmax in Wistar rat at 10 mg/kg, iv; type: ADME, organism-based; parameters: dose 10 mg/kg, route intravenous; settings: in vivo
Rattus norvegicus [6] = test: Cognitive enhancing effect in rat at 10 mg/kg, po after 60 mins by novel object recognition test; type: functional, organism-based; parameters: dose 10 mg/kg
[7] = target: Sodium-dependent noradrenaline transporter (Homo sapiens) (UniProt P23975); test: Inhibition of NET at 0.5 uM
[8] = target: 5-hydroxytryptamine receptor 4 (Homo sapiens) (UniProt Q13639); test: Binding affinity to human recombinant 5HT4 receptor expressed in CHO cells co-expressing pCRE-Luc gene assessed as modulation of serotonin-induced intracellular cAMP level at 0.5 uM after 5 hrs by luciferase based luminescence assay; type: cell-based
5-hydroxytryptamine receptor 4 (Homo sapiens), sequence (Q13639 whole entry): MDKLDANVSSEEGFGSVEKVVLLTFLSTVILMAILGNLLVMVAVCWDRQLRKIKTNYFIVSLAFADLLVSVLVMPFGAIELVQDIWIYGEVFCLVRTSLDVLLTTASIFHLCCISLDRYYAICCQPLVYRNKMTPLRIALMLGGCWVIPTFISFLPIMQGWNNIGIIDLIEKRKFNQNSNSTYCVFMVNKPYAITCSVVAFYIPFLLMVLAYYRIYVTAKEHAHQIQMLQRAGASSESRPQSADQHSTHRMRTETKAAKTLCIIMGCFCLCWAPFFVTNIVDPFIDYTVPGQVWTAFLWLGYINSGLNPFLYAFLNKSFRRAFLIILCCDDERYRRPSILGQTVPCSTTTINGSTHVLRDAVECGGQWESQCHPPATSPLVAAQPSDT

[9] = Half life in Wistar rat at 10 mg/kg, po; type: ADME, organism-based; parameters: dose 10 mg/kg, route oral; settings: in vivo
[10] = Ratio of drug level in brain to plasma in Wistar rat at 1 mg/kg, iv after 6 hrs; type: ADME, organism-based; parameters: dose 1 mg/kg, route intravenous
[11] = Half life in Wistar rat at 10 mg/kg, iv; type: ADME, organism-based; parameters: dose 10 mg/kg, route intravenous; settings: in vivo
[12] = Apparent volume of distribution in Wistar rat at 10 mg/kg, iv; type: ADME, organism-based; parameters: dose 10 mg/kg, route intravenous; settings: in vivo, read-out: Vz
[13] = target: 5-hydroxytryptamine receptor 7 (Rattus norvegicus) (UniProt P32305); test: Binding affinity to rat 5HT7 receptor expressed in CHO cells co-expressing pCRE-Luc gene assessed as modulation of serotonin-induced intracellular cAMP level at 0.5 uM after 5 hrs by luciferase based luminescence assay; type: cell-based
5-hydroxytryptamine receptor 7 (Rattus norvegicus), sequence (P32305 whole entry): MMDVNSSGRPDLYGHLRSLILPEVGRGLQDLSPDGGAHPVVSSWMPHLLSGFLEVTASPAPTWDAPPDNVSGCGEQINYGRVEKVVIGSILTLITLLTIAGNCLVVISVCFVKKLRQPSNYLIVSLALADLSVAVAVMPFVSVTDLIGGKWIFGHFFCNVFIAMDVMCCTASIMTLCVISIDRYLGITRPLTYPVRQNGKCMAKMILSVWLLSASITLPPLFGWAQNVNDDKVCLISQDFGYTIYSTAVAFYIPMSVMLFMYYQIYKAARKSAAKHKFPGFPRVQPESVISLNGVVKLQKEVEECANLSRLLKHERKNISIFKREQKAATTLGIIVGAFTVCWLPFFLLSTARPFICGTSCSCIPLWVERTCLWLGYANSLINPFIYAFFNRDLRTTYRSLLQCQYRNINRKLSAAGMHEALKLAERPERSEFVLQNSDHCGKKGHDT

[14] = Clearance in Wistar rat at 10 mg/kg, po; type: ADME, organism-based; parameters: dose 10 mg/kg, route oral; settings: in vivo
[15] = target: 5-hydroxytryptamine receptor 2A (Homo sapiens) (UniProt P28223); test: Inhibition of 5HT2A receptor at 0.5 uM
5-hydroxytryptamine receptor 2A (Homo sapiens), sequence (P28223 whole entry): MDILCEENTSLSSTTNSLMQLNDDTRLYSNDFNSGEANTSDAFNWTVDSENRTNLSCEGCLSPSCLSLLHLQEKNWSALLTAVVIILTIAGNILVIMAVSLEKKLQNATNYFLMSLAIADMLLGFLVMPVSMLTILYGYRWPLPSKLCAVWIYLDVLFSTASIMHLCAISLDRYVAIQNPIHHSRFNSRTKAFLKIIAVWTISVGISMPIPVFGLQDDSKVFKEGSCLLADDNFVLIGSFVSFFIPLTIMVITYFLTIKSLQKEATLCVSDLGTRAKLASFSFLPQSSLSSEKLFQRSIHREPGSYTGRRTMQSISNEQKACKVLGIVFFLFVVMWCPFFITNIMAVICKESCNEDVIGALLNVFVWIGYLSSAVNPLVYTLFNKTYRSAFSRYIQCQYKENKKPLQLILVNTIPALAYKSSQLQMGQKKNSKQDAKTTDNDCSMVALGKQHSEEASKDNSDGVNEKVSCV

[16] = target: Sodium-dependent serotonin transporter (Homo sapiens) (UniProt P31645); test: Inhibition of SERT at 0.5 uM
Sodium-dependent serotonin transporter (Homo sapiens), sequence (P31645 whole entry, looked up): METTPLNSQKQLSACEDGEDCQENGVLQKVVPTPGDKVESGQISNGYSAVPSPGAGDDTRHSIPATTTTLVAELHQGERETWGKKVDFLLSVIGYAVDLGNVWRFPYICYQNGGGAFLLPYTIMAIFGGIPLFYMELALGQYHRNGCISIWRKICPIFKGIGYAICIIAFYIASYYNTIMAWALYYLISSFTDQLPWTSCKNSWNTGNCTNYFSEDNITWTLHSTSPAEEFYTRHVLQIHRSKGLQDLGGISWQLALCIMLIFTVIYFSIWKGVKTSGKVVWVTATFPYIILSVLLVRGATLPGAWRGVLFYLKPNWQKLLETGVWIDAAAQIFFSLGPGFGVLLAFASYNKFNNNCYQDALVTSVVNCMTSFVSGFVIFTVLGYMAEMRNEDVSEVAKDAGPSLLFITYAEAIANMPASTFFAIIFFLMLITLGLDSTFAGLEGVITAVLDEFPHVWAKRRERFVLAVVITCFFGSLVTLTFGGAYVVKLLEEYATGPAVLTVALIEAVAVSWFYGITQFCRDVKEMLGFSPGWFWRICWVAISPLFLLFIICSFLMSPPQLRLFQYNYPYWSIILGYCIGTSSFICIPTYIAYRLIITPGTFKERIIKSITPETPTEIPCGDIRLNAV

[17] = target: T2, 5-hydroxytryptamine receptor 2C (Homo sapiens) (UniProt P28335); test: Inhibition of 5HT2C receptor at 0.5 uM
T2 sequence (whole entry): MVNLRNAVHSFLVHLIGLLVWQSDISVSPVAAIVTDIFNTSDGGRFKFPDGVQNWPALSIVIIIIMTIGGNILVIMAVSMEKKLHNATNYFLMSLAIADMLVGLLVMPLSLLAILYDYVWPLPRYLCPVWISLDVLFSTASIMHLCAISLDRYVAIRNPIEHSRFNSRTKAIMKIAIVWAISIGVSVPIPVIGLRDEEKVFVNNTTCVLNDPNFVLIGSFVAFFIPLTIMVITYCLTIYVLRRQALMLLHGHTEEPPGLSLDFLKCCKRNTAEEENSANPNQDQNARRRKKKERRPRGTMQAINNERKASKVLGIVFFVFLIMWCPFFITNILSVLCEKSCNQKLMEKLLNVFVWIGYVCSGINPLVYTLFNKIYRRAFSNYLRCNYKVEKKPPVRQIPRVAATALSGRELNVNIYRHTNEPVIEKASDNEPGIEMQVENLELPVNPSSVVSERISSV

[18] = target: T3, Muscarinic acetylcholine receptor M1 (Homo sapiens) (UniProt P11229); test: Binding affinity to human muscarinic M1 receptor expressed in CHO cells co-expressing pCRE-Luc gene assessed as modulation of acetylcholine-induced intracellular cAMP level at 0.5 uM after 5 hrs by luciferase based luminescence assay; type: cell-based
T3 sequence (whole entry): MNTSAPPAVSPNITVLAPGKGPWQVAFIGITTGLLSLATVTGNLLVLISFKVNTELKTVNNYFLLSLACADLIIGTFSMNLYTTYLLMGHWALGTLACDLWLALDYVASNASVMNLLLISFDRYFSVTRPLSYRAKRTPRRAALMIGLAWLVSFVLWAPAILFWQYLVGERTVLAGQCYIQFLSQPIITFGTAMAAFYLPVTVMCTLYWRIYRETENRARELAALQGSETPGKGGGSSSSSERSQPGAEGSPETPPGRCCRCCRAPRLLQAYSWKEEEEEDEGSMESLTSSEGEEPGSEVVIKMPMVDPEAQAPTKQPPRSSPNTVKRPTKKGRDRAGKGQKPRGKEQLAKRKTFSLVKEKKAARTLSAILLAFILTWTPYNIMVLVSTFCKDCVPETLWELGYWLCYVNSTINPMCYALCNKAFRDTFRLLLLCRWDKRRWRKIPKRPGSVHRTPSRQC

[19] = Cmax in Wistar rat at 10 mg/kg, po; type: ADME, organism-based; parameters: dose 10 mg/kg, route oral; settings: in vivo
Rattus norvegicus [20] = test: Cognitive enhancing effect against scopolamine-induced memory deficit in rat at 10 mg/kg, po by morris water maze test; type: functional, organism-based; parameters: dose 10 mg/kg
[21] = target: D(2) dopamine receptor (Homo sapiens) (UniProt P14416); test: Inhibition of dopamine D2 receptor at 0.5 uM
D(2) dopamine receptor (Homo sapiens), sequence (P14416 whole entry): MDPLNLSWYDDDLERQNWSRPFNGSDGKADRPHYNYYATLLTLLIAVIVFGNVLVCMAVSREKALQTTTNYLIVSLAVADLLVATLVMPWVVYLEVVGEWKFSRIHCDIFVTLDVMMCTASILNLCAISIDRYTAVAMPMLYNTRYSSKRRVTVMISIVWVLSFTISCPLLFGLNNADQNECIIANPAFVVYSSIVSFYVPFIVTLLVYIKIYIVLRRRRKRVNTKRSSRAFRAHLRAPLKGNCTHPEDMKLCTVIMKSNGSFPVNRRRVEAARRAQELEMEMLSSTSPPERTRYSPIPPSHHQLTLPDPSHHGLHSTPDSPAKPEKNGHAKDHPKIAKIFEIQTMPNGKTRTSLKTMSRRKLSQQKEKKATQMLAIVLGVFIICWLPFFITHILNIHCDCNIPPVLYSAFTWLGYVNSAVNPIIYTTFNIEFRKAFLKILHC

[22] = AUCt in Wistar rat at 10 mg/kg, po; type: ADME, organism-based; parameters: dose 10 mg/kg, route oral; settings: plasma
[23] = Metabolic stability in human liver microsomes assessed as drug metabolized level after 30 mins; type: ADME, Microsome; settings: read-out: Activity
[24] = target: 5-hydroxytryptamine receptor 6 (Homo sapiens) (UniProt P50406); test: Binding affinity to human recombinant 5HT6 receptor expressed in CHO cells co-expressing pCRE-Luc gene assessed as modulation of serotonin-induced intracellular cAMP level after 4 hrs by luciferase based luminescence assay; type: cell-based
5-hydroxytryptamine receptor 6 (Homo sapiens), sequence (P50406 whole entry): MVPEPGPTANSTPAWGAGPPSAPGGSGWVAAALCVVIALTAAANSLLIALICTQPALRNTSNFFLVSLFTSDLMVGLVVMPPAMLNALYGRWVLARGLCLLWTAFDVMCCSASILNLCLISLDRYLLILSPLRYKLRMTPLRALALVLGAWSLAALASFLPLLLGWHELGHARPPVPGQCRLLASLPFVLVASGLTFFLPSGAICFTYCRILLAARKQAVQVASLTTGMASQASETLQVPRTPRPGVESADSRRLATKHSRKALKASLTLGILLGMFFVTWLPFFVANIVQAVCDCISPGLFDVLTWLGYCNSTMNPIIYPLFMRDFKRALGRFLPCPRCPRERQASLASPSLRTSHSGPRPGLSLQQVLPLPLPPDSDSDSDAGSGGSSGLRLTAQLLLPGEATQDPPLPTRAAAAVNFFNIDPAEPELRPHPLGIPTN

Cytochrome P450 3A4 = Cytochrome P450 3A4 (Homo sapiens, UniProt P08684); test: Inhibition of CYP3A4; type: ADME
Cytochrome P450 3A4, sequence (P08684 whole entry): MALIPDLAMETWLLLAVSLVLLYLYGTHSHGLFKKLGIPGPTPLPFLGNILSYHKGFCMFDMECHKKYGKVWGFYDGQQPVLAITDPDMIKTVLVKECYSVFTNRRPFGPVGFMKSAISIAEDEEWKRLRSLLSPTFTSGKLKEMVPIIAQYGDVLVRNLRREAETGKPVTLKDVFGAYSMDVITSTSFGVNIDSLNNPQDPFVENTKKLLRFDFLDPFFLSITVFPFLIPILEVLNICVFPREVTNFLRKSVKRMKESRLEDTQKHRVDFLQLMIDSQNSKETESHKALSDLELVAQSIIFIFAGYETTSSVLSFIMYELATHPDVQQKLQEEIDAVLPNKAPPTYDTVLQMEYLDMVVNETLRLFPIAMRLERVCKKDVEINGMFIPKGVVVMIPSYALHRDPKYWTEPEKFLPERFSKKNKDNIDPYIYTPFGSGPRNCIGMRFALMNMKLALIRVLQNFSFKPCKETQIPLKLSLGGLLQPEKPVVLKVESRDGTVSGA

Rattus norvegicus [25] = test: Apparent volume of distribution in Wistar rat at 10 mg/kg, po; type: ADME, organism-based; parameters: dose 10 mg/kg, route oral; settings: in vivo
[26] = Metabolic stability in rat liver microsomes assessed as drug metabolized level after 30 mins; type: ADME, Microsome; settings: read-out: Activity
[27] = Clearance in Wistar rat at 10 mg/kg, iv; type: ADME, organism-based; parameters: dose 10 mg/kg, route intravenous; settings: in vivo
[28] = Oral bioavailability in Wistar rat at 10 mg/kg; type: ADME, organism-based; settings: in vivo
Cytochrome P450 2D6 = Cytochrome P450 2D6 (Homo sapiens, UniProt P10635); test: Inhibition of CYP2D6; type: ADME
Cytochrome P450 2D6, sequence (P10635 whole entry): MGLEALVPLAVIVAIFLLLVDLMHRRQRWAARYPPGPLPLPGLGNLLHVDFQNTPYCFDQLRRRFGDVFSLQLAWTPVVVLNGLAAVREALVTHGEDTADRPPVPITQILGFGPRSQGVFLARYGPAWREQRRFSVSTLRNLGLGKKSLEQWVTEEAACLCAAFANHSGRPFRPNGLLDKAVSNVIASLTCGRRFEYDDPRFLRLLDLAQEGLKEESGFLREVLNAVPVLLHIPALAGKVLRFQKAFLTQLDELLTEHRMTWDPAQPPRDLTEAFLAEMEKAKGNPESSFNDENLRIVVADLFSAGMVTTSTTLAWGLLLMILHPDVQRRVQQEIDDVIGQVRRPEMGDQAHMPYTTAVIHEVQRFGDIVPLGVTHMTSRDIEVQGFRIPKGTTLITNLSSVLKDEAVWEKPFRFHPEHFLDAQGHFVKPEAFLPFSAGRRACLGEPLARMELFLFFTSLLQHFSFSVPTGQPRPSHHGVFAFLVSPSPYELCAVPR

## CN1CC(Cl)=C(c2cn(S(=O)(=O)c3ccccc3)c3ccccc23)C1
[1]
  inhibition: < 50%
[2]
  inhibition: < 50%
[3]
  inhibition: < 50%
[4]
  AUC(0-t): 2.32 µg·h/mL
[5]
  Cmax: 2.69 µg/mL
Rattus norvegicus [6]
  Activity: Active
[7]
  inhibition: < 50%
[8]
  inhibition: < 50%
[9]
  half-life: 3.75 h
[10]
  Kp at 6 h: 1.79
[11]
  half-life: 5.48 h
[12]
  Vd: 34.9 L/kg
[13]
  inhibition: < 50%
[14]
  CL/F: 35.1 L/h/kg
[15]
  inhibition: < 50%
[16]
  inhibition: < 50%
[17]
  inhibition: < 50%
[18]
  inhibition: < 50%
[19]
  Cmax: 0.105 µg/mL
Rattus norvegicus [20]
  Activity: Active
[21]
  inhibition: < 50%
[22]
  AUC(0-t): 0.268 µg·h/mL
[23]
  metabolised at 0.5 h: 43%
[24]
  Kb: 0.0001 µM
Cytochrome P450 3A4
  IC50: 14.7 µM
Rattus norvegicus [25]
  Vz: 196.287 L/kg
[26]
  metabolised at 0.5 h: 70%
[27]
  clearance: 4.35 L/h/kg
[28]
  bioavailability: 12%
Cytochrome P450 2D6
  IC50: 21.1 µM
